The text below walks through data of patent publication US5563128A, “Phosphonate derivatives of lipophilic amines” (Rhone-Poulenc Rorer Pharmaceuticals Inc., priority 1995, dated 1996).

In this experiment the target is T1, squalene synthase (Rattus norvegicus, UniProt Q02769).
T1 construct: Microsomes are prepared by centrifugation (100,000 g) and then resuspended in the assay buffer; from tissue; host or cells: liver microsomes of male Sprague-Dawley rats (animals from Taconic Farms, Germantown, N.Y.)
T1 sequence (Q02769 1-416): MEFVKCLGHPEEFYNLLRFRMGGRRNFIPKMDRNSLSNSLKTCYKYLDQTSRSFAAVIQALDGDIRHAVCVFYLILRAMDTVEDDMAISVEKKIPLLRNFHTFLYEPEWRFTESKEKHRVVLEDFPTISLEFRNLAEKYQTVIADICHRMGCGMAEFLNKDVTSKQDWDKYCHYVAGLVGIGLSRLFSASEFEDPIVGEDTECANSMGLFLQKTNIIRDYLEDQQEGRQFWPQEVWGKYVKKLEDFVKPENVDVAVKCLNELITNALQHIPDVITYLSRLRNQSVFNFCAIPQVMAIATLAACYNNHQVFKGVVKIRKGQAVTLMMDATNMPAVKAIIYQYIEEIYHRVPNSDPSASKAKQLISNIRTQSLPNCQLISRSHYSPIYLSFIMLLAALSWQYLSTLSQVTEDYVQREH
As to the kind of experiment: Squalene Synthase Inhibition Assay (rat liver microsomes, [3H]FPP). It counts as biochemical, rat (male Sprague-Dawley). As to conditions: for IC50: 50 mM, pH 7.4. The protocol: Squalene Synthase Inhibition Assay
I. Preparation of Assay Substances:
Test solutions are prepared fresh in 100% DMSO or dH2 O. Subsequent dilutions are made in the same solvent. Compounds are tested initially at 1 μM (final concentrations).
Potassium Phosphate (50 mM,) pH 7.4, and HEPES (4-(2-hydroxyethyl)-1-piperazineethanesulfonic acid, 50 mM) pH 7.4 stock buffers are prepared and stored at 4° C. until use.
C) Microsomal Enzyme Preparation:
Fresh livers from male Sprague-Dawley rats (Taconic Farms, Germantown, N.Y.) weighing 150-200 g are collected after exsanguination. All subsequent procedures are performed at 4° C. The liver is homogenized in the assay buffer (50 mM, pH 7.4). Cellular fractions are separated as described by Popjak, G. in "Enzymes of sterol biosynthesis in liver and intermediates of sterol biosynthesis," Meth. Enzymol. […] Microsomes are prepared by centrifugation (100,000 g) and then resuspended in the assay buffer. Microsomes are rehomogenized with a motor-driven Teflon pestle to yield a uniform suspension (~30 mg protein/ml), aliquoted, and stored at -80° C. until use.
II. Squalene Synthase Assay
The procedure is a modification of those described by Popjack (ibid) and Poulter et al. in "Squalene synthase. Inhibition by ammonium analogues of carbocationic intermediates in the conversion of presqualene diphosphate to squalene" J. Am. Chem. Soc. […] All components except [^3 H]FPP are preincubated for 10 min. at 37° C. The reaction is initiated by the addition of [^3 H]FPP. […] The tubes are incubated at 65° C. for 30 min. to solubilize proteins. The mixture is extracted with 5 ml petroleum ether for 10 min. After freezing the lower aqueous phase, the organic phase is transferred to glass tubes containing 2 ml distilled water. After washing the lower aqueous phase is frozen and the petroleum ether phase is removed and counted with 10 ml Ready Safe liquid scintillation cocktail using a Beckman LS-9000 scintillation counter. DPM values are adjusted against a blank (no enzyme).
The difference in radioactivity in the presence and absence of the test compound is used to determine the level of inhibition. […] Tallarida, R. J. and Murray, R. B. Manual of pharmacologic calculations with computer programs.

Structures are written as SMILES.

In turn, `O=P(O)(O)CCCN1CCC=C(c2ccc(-c3nc4ccccc4o3)cc2)C1` showed an IC50 (HEPES buffer) of 17 µM. Under “Phosphate buffer”, the inhibition at 10 µM turned out to be 35%.

For the compound `O=P(O)(O)CCCN[C@@H]1CC=CC[C@H]1c1ccc(/C=C/c2ccccc2)cc1` (relative stereo), for the setting “HEPES buffer”, the inhibition at 10 µM was -2%. For the same compound, the inhibition at 5 µM (Phosphate buffer, @ 5 μM) was determined as 61%.

Consider `COP(=O)(O)C(CCN[C@@H]1CC=CC[C@H]1c1ccc(/C=C/c2ccccc2)cc1)P(=O)(O)OC` (relative stereo), for which the inhibition at 10 µM (HEPES buffer) turned out to be 69%.

For the setting “HEPES buffer”, `O=P(O)(O)C(CCN[C@@H]1CCCC[C@H]1OCc1ccc(-c2nc3ccccc3o2)cc1)P(=O)(O)O` (relative stereo) registered an IC50 of 0.013 µM.

Consider `CCOP(=O)(OCC)C(CCN[C@@H]1CCCC[C@H]1OCc1ccc(-c2nc3ccccc3o2)cc1)P(=O)(OCC)OCC` (relative stereo), for which the inhibition at 10 µM (HEPES buffer) amounted to 14%.
